Measured values: patent publication US11072596B2, “Poly(ADP-ribose) polymerase inhibitor, preparation method and use” (SELECTION BIOSCIENCE LLC, priority 2017, dated 2021)
Like-named read-outs stand apart in the source and are kept apart here.

How the values were obtained:
CYP2D6 = molecular target: T1, CYP2D6 (Homo sapiens, UniProt P10635); test: Inhibition of human liver microsomal CYP450 enzymes, CYP2D6; assay type: in vitro ADME; conditions: human liver microsomes, substrate Bufuralol 10 μM; Reference = quinidine; read-out: IC50 2D6
T1 construct: from tissue; host or cells: human liver microsomes (HLM)
Procedure: The inhibitory effects of the compound of the present disclosure on the CYP450 enzymes of six human subtypes were determined by the following experimental method:
Reference compounds of each subtype: CYP1A2: α-naphthoflavone; CYP2C9: sulfaphenazole; CYP2C19: omeprazole; CYP3A4: ketoconazole; CYP2D6: quinidine.
Substrate concentration: CYP1A2: Phenacetin at 30 μM; CYP2C9: Diclofenac at 10 μM; CYP2C19: S-Mephenytoin at 35 μM; CYP3A4: Midazolam at 5 μM and Testosterone at 80 μM; CYP2D6: Bufuralol at 10 μM.
6. 0.2 mg/mL of HLM was added to the test wells, 400 μL per well, and then the gradient diluted 400× test compound was added to the corresponding wells.
7. 0.2 mg/mL of HLM was added to the test wells, 200 μL per well, and then the gradient-diluted reference inhibitor was added to the corresponding wells. Steps 6 and 7 needed to be performed on ice.
8.1. 30 μL of test compound and reference compound were mixed in 0.2 mg/mL of HLM solution (see steps 6 and 7).
8.2. 15 μL of 4× substrate solution (see step 4) was added.
10. Preheated 8 mM of NADPH solution was added to the 96-well test plate (see step 3) to initiate the reaction, 15 μL per well.
11. The test plate was incubated at 37° C.: 3A4 for 5 minutes, each of 1A2, 2C9 and 2D6 for 10 minutes, and 2C19 for 45 minutes.
12. ACN containing internal reference was added to stop the reaction, 120 μL per well.
14. […]

[1] = Liver microsomal stability in vitro, dog; assay type: in vitro ADME; conditions: for half-life at 1 μM: pH 7.4, dog liver microsomes 0.5 mg protein/mL, 1 μM test compound, 37° C., read-out: Dog T1/2
Procedure: Evaluation of in vitro liver microsomal stability of the compound of the present disclosure was tested by the following method:
Buffer: 100 mM potassium phosphate buffer, pH 7.4; […] MgCl2.
Liver microsomes: human liver microsomes, Corning Cat No. 452117; Rat liver microsomes, Xenotech Cat No. R1000; Mouse liver microsomes, Xenotech Cat No. M1000; Dog liver microsomes, Xenotech Cat No. D1000; Liver microsomes of cynomolgus monkey, Corning Cat No. 452413, the final concentration was 0.5 mg protein/mL.
1. Intermediate solution: 5 μL of compound or control in stock solution (10 mM) was diluted with 495 μL of methanol (concentration: 100 μM, 99% MeOH).
2. Operating solution: the intermediate solution was diluted […] with 450 μL 100 mM potassium phosphate buffer (concentration: 10 μM, 9.9% MeOH).
1. 10 μL of compound or control solution per well was added to all plates (T0, T5, T10, T20, T30, T60, NCF60) except matrix blank.
2. Microsome solution was distributed to 96-well plates according to platemap for standby, 680 μL per well, and the mixture of microsome solution and the compound was incubated at 37° C. for about 10 minutes.
4. After preheating, NADPH regeneration system was distributed to 96-well plate, 90 μL per well, for standby according to plate map, which was added to each plate to start the reaction, 10 μL per well. The final concentration of each component in the incubation medium includes: 0.5 mg protein/mL microsome, 1 μM test compound, […], 0.99% methanol and 0.01% DMSO.
6. The above-prepared stop solution (4° C. cooling) was added to stop the reaction, 300 μL per well.
9. During centrifugation, eight new 96-well plates were loaded with 300 μL of HPLC water, and then 100 μL of supernatant was transferred for mixing, followed by LC/MS/MS detection.
10. Data analysis: The peak area of the corresponding compound and internal standard was detected by LC-MS/MS, and the T1/2 of the compound was calculated by the following formula: […]

PARP1 = molecular target: T2, PARP1 (Homo sapiens, UniProt P09874); test: PARP1 Colorimetric Assay (PARP-1 kinase inhibitory activity); assay type: biochemical; conditions: PARP1 colorimetric assay kit, 1 hour at room temperature; read-out: PARP1 (in vitro enzymatic inhibitory activity, IC50)
T2 construct: purchased BPS 80580
Procedure: PARP1 kinase activity was tested by the following method:
PARP1 Colorimetric Assay Kit (BPS, Cat #80580)
1. PARP1 Colorimetric Assay
2) 50 μL of diluted coating solution was added to each well for overnight at 4° C.
4) 200 μL of blocking buffer was added to each well and incubated at room temperature for 90 minutes.
1) A reaction solution was prepared in a ratio of […] 2.5 μL 10×PARP buffer+2.5 μL 10×PARP Assay mixture+5 μL Activated DNA+15 μL deionized water per well, and 25 μL of the reaction solution was added to each well (see Table 1).
4) 100 μL of colorimetric HRP substrate was added to each well and reacted at room temperature for 20 minutes.
5) 100 μL of 2 M H2SO4 was added to each well and OD 450 nm was read on a microplate reader.

CYP3A4 = molecular target: T3, CYP3A4 (Homo sapiens, UniProt P08684); test: Inhibition of human liver microsomal CYP450 enzymes, CYP3A4; assay type: in vitro ADME; conditions: human liver microsomes, Reference = ketoconazole
T3 construct: from tissue; host or cells: human liver microsomes (HLM)
T3 sequence (P08684 whole entry): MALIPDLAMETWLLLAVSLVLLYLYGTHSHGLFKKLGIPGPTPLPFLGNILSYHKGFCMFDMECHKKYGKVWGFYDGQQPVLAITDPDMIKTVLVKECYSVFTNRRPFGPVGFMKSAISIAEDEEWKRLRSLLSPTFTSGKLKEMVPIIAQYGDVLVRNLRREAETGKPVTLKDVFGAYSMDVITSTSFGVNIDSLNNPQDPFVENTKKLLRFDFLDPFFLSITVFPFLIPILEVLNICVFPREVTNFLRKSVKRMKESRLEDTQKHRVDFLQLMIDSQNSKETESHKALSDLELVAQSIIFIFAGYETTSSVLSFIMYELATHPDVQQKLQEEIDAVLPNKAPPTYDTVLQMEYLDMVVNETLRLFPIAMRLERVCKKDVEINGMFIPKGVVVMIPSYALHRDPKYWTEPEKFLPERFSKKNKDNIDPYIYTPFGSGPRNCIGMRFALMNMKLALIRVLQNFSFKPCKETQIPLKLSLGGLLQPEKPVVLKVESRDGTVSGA
Procedure: 50 μL of supernatant from each well was transferred to a 96-well sample plate containing 50 μL of ultrapure water (Millipore, ZMQS50F01) for LC/MS analysis. […]

T1 sequence (P10635 whole entry): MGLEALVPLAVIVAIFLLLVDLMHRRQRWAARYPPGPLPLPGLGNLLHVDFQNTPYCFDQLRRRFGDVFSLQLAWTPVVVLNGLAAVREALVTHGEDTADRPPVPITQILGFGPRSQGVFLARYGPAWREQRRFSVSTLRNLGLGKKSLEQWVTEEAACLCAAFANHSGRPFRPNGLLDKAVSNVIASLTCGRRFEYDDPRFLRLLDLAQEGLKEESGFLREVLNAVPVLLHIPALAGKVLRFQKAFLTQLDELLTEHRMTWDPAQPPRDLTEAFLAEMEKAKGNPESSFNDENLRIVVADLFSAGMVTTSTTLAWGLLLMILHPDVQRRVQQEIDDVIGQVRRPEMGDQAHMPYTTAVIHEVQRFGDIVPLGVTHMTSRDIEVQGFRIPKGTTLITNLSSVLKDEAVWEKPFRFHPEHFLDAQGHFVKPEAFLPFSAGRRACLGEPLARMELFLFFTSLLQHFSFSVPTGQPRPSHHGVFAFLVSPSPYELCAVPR
T2 sequence (P09874 whole entry): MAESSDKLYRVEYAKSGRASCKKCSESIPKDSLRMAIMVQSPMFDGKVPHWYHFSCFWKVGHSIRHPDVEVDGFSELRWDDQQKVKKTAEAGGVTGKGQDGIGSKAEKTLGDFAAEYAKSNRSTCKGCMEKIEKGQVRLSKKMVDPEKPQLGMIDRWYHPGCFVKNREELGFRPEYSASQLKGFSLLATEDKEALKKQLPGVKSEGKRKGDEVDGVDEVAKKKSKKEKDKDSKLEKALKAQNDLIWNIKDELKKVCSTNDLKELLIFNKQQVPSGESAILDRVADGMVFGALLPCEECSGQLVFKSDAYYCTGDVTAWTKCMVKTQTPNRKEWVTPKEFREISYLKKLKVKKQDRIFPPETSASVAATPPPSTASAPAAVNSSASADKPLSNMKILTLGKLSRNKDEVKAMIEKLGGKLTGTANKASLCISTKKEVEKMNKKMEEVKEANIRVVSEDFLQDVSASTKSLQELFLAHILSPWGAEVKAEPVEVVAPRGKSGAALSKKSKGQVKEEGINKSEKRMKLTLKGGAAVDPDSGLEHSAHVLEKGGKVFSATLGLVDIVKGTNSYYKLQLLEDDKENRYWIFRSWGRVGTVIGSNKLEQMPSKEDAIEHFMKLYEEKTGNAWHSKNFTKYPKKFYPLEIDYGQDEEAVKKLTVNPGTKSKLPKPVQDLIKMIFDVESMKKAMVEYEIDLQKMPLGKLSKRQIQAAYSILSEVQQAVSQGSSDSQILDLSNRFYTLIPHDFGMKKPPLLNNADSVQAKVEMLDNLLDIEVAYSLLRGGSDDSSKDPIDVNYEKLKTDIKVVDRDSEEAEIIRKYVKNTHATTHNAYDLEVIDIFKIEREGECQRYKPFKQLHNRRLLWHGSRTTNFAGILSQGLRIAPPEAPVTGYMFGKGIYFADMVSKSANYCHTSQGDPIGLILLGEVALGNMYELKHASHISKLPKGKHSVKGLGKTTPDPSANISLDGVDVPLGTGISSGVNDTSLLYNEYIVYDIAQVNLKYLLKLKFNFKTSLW

Row | Structure (SMILES) | IC50 (CYP2D6) [µM] | metabolic stability in dog liver microsomes, in words ([1]; dog liver microsomes) | half-life at 1 μM [1] [min] | IC50 (PARP1) [nM] | IC50 (CYP3A4; substrate Midazolam 5 μM, read-out: IC50 3A4 (Midazolam)) [µM] | IC50 (CYP3A4; substrate Testosterone 80 μM, read-out: IC50 3A4 (Testosterone)) [µM]
1 | NC(=O)c1cccc2cn(-c3ccc([C@]4(F)CCCNC4)cc3)nc12 (single isomer, unassigned) [Example 23, (R or S)-2-(4-(3-fluoropiperidin-3-yl)phenyl)-2H-indazole-7-carboxamide] | > 10 | excellent metabolic stability | 20.3 | < 100 | > 10 | > 10
2 | NC(=O)c1cccc2cn(-c3ccc([C@@H]4CCCNC4)cc3)nc12 [Niraparib, reference compound] | > 10 | – | 22.6 | – | – | –
